Values joined by “and” are separate entries in the source; they are usually repeats but may differ in a detail not shown here. Equal values may be shown once.
How the values were obtained:
[1] = Pharmacokinetic analysis of plasma after intravenous and oral dosing
Method: Samples were centrifuged at 15,000 rpm for 10 min, then blood plasma was collected from the upper layer and frozen at −80 °C until analysis. […] Sample processing, chromatographic separation, MS, and MS/MS parameters used for analysis were determined by the core. […] Standard curves for peak area ratio of compound to internal standard (Astd/AIstd) vs. compound concentration were used to determine sample analyte concentrations through linear regression with a weighting average of 1/X^2. […] All pharmacokinetic parameters were estimated using non-compartmental analysis with Phoenix/WINONLIN, and provided by the core along with calculated sample analyte concentrations. Data was generated from n ≥ 3 individual animals sampled per time point per compound for each method of dosing.

SET-2 cells = experiment: SET-2 proliferation assay (CellTiter-Fluor); format: cell-based, human; conditions: 72 h
Method: Viable cells were counted by CellTiter-Fluor Assay (Promega) according to manufacturer’s protocol, and all fluorescence values were corrected by a no-cell control. […] Caspase activity was measured by Caspase-Glo 3/7 assay (Promega) according to the manufacturer’s protocol, and all luminescence values were corrected by a no-cell control. Dose response proliferation and Caspase activation data was normalized to vehicle treated control cells and analyzed by non-linear regression for determination of IC50 values. Data was generated from n = 3 independent experiments performed in replicate.

PI3Kγ = PI3Kγ (Homo sapiens, UniProt P48736); experiment: Target kinase 10-point inhibition assay, PI3Kγ; format: biochemical; conditions: PI3K gamma, replicates
PI3Kγ, sequence (P48736 whole entry, canonical isoform): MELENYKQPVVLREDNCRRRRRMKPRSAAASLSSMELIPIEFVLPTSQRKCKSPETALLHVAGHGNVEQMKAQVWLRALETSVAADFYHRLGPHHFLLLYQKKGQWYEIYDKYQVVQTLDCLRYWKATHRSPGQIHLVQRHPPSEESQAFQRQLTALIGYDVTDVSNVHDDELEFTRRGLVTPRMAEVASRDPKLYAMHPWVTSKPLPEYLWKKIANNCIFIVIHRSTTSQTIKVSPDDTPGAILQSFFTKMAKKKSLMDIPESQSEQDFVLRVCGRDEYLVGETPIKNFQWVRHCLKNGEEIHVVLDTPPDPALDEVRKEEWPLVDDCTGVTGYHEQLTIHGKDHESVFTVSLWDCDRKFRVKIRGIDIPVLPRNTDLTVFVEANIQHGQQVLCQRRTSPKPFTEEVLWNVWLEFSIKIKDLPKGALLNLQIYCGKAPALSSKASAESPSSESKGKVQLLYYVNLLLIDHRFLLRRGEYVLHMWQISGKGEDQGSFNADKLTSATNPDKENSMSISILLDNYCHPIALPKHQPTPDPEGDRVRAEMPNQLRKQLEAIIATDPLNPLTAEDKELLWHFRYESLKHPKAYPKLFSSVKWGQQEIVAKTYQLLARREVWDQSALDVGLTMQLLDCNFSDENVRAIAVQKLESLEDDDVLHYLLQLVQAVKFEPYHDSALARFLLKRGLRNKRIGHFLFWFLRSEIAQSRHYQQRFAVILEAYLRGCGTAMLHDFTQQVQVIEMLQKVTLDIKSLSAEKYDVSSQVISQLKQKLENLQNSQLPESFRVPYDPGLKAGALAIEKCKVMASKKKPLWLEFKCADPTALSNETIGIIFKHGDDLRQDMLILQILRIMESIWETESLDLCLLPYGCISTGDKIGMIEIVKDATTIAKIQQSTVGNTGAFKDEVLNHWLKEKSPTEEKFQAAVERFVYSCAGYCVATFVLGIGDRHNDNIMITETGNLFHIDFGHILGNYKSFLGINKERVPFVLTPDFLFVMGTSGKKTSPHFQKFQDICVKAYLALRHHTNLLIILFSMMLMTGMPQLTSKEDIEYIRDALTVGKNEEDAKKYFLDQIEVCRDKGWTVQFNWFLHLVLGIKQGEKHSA
Method: (§1) Quantitation of kinase inhibition was carried out by Life Technologies (Madison, WI) using the SelectScreen profiling platforms Z’-LYTE^TM and Adapta^TM. Single-point broad panel kinome screening was performed at 2.5 µM LP-182 against all kinases within the Z’-LYTE^TM and Adapta^TM assays (321 kinase isoforms, holoenzymes, or mutant variants). The average percent kinase inhibition from replicate data was ranked low to high, converted to a compatible identifier format, then input into Coral Human Kinome Visualization software for presentation analysis. […] Scaling of evolutionary distance for PI kinases is only relative and is based on literature analysis[62],[63]. Average percent kinome inhibition values from replicate data are supplied in Source Data file. […]. Corrected data was normalized to vehicle treated control values, and dose response percent kinase activity was analyzed by non-linear regression for determination of IC50 values.

mTOR = mTOR (Homo sapiens, UniProt P42345); experiment: Target kinase 10-point inhibition assay, mTOR; format: biochemical; conditions: replicates
mTOR, sequence (P42345 1360-2549 limits assumed): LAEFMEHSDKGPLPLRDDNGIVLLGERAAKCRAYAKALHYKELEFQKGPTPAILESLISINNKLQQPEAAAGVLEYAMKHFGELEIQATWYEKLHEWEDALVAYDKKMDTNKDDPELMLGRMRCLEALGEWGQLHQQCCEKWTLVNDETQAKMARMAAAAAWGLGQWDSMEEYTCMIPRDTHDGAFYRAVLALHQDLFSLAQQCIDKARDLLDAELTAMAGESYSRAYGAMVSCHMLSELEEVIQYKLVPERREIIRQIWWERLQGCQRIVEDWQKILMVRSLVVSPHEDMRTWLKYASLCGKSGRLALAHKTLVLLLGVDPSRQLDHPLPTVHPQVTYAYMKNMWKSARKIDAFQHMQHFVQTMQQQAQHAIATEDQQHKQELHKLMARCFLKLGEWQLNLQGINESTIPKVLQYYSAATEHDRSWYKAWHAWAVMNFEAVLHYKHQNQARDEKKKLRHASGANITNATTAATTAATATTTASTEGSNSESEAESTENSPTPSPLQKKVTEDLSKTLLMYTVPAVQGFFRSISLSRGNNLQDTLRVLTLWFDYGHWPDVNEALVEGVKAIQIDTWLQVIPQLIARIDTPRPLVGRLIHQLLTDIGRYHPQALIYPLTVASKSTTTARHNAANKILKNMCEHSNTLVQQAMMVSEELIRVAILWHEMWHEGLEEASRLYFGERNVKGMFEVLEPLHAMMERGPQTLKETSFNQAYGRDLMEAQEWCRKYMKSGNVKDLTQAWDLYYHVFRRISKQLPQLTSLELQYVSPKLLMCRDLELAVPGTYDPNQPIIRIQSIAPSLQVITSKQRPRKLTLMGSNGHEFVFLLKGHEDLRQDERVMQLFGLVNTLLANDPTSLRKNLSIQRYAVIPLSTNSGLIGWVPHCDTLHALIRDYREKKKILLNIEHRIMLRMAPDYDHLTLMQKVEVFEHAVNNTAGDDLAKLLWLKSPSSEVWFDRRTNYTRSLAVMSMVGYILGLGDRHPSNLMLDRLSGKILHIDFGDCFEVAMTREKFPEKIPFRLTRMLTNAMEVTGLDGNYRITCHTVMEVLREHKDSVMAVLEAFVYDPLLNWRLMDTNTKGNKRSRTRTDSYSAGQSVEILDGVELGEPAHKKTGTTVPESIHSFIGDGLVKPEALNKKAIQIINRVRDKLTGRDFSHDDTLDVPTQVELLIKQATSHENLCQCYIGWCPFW
Method: as §1

## O=C(NOCCOCCOCCOCCC(=O)N1CCN(c2cnc3ccc(-c4cnc(Cl)c(NS(=O)(=O)c5ccc(F)cc5)c4)cc3n2)CC1)c1ccc(F)c(F)c1Nc1ccc(I)cc1F [LP-182, N-(2-(2-(2-(3-(4-(7-(6-chloro-5-((4-fluorophenyl)sulfonamido)pyridin-3-yl)quinoxalin-2-yl)piperazin-1-yl)-3-oxopropoxy)ethoxy)ethoxy)ethoxy)-3,4-difluoro-2-((2-fluoro-4-iodophenyl)amino)benzamide]
[1]; female, CD-1, mouse, plasma, iv, 15 mg kg^−1, Concentration, Supplementary Figure 6a, Time 7 h, individual replicates
  concentration at 7 h: 29.2 ng/mL
[1]; female, CD-1, mouse, plasma, iv, 15 mg kg^−1, Concentration, Supplementary Figure 6a, Time 24 h, individual replicates
  concentration at 24 h: 9.67 ng/mL
[1]; female, CD-1, mouse, plasma, iv, 15 mg/kg
  half-life: 7.9 h
[1]; female, CD-1, mouse, plasma, po, 400 mg kg^−1, Concentration (ng/mL), mice, single p.o. LP-182 400 mg kg^−1, 0.5 h, analyte = label, individual animals
  concentration at 0.5 h: 2530 ng/mL
[1]; female, CD-1, mouse, plasma, po, 400 mg kg^−1, Concentration (ng/mL), mice, single p.o. LP-182 400 mg kg^−1, 1 h, analyte = label, individual animals
  concentration at 1 h: 1240 ng/mL
[1]; female, CD-1, mouse, plasma, po, 400 mg kg^−1, Concentration, Supplementary Figure 6a, Time 0.5 h, individual replicates
  concentration at 0.5 h: 2530 ng/mL
[1]; female, CD-1, mouse, plasma, po, 400 mg kg^−1, Concentration, Supplementary Figure 6a, Time 1 h, individual replicates
  concentration at 1 h: 1240 ng/mL
[1]; female, CD-1, mouse, plasma, po, 400 mg/kg
  half-life: 12.7 h
[1]; mice, after oral LP-182 400 mg kg^−1, analyte = label
  plasma level maintained over 24 h: ~ 300 ng mL^-1
[1]; mice, plasma, single i.v. LP-182 15 mg kg^−1, 0.167 h, analyte = label, individual animals
  Concentration: 11100 ng/mL and 8270 ng/mL and 5220 ng/mL
[1]; mice, plasma, single i.v. LP-182 15 mg kg^−1, 0.5 h, analyte = label, individual animals
  Concentration: 807 ng/mL and 646 ng/mL
[1]; mice, plasma, single i.v. LP-182 15 mg kg^−1, 1 h, analyte = label, individual animals
  Concentration: 451 ng/mL and 857 ng/mL
[1]; mice, plasma, single i.v. LP-182 15 mg kg^−1, 2 h, analyte = label, individual animals
  Concentration: 275 ng/mL and 179 ng/mL
[1]; mice, plasma, single i.v. LP-182 15 mg kg^−1, 4 h, analyte = label, individual animals
  Concentration: 141 ng/mL and 75.9 ng/mL
[1]; mice, plasma, single i.v. LP-182 15 mg kg^−1, 7 h, analyte = label, individual animals
  Concentration: 51.4 ng/mL and 34.3 ng/mL
[1]; mice, plasma, single i.v. LP-182 15 mg kg^−1, 16 h, analyte = label, individual animals
  Concentration: 30.6 ng/mL and 29.3 ng/mL and 5.58 ng/mL
[1]; mice, plasma, single i.v. LP-182 15 mg kg^−1, 24 h, analyte = label, individual animals
  Concentration: 7.68 ng/mL and 8.28 ng/mL
[1]; mice, plasma, single p.o. LP-182 400 mg kg^−1, 0.167 h, analyte = label, individual animals
  Concentration: 731 ng/mL and 1660 ng/mL and 900 ng/mL
[1]; mice, plasma, single p.o. LP-182 400 mg kg^−1, 0.5 h, analyte = label, individual animals
  Concentration: 2150 ng/mL and 2630 ng/mL
[1]; mice, plasma, single p.o. LP-182 400 mg kg^−1, 1 h, analyte = label, individual animals
  Concentration: 1580 ng/mL and 1950 ng/mL
[1]; mice, plasma, single p.o. LP-182 400 mg kg^−1, 2 h, analyte = label, individual animals
  Concentration: 424 ng/mL and 145 ng/mL and 74.1 ng/mL
[1]; mice, plasma, single p.o. LP-182 400 mg kg^−1, 4 h, analyte = label, individual animals
  Concentration: 146 ng/mL and 522 ng/mL and 339 ng/mL
[1]; mice, plasma, single p.o. LP-182 400 mg kg^−1, 7 h, analyte = label, individual animals
  Concentration: 331 ng/mL and 97.6 ng/mL and 1560 ng/mL
[1]; mice, plasma, single p.o. LP-182 400 mg kg^−1, 16 h, analyte = label, individual animals
  Concentration: 79.2 ng/mL and 205 ng/mL and 265 ng/mL
[1]; mice, plasma, single p.o. LP-182 400 mg kg^−1, 24 h, analyte = label, individual animals
  Concentration: 401 ng/mL and 114 ng/mL and 295 ng/mL
SET-2 cells; 0.15625 µM, replicates (Fig. 2d)
  Growth (%): 82.3145% and 74.8007% and 92.2424% and 95.23%
SET-2 cells; 0.3125 µM, replicates (Fig. 2d)
  Growth (%): 82.5275% and 93.6976% and 99.8925% and 94.4152% and 100.311% and 101.419%
SET-2 cells; 0.625 µM, replicates (Fig. 2d)
  Growth (%): 75.7591% and 84.1959% and 99.0777% and 114.242% and 99.4809% and 107.316%
SET-2 cells; LP-182 0.625 µM, replicates
  Growth (%): 94.49% and 102.748% and 105.532% and 109.611% and 111.9% and 115.3% and 97.84% and 53.1792% and 80% and 77.2254% and 41.1561% and 108.317%
SET-2 cells; LP-182 5 µM, replicates
  Growth (%): 88.52% and 52.137% and 67.274% and 67.1508% and 90.41% and 85.13% and 85.23% and 51.3295% and 50.867% (2×) and 75.3757% and 52.71%
SET-2 cells; LP-182 10 µM, replicates
  Growth (%): 67.22% and 40.3515% and 41.5713% and 43.4811% and 65.18% and 66.4% and 66.22% and 0% and 7.399% and 24.9711% (2×) and 44.7503%
SET-2 cells; LP-182 20 µM, replicates
  Growth (%): 33.48% and 38.226% and 25.5964% and 32.3363% and 26.13% and 25.92% and 25.14% and 0% (4×) and 25.7197%
SET-2 cells; LP-182 40 µM, replicates
  Growth (%): 13.5% and 29.145% and 27.7897% and 24.9557% and 14.69% and 13.53% and 12.78% and 0% (4×) and 22.7255%
SET-2 cells; Homo sapiens, read-out: IC50, inhibition of cellular proliferation
  IC50: 7.6 ± 0.82 µM
PI3Kγ; 0.495 nM, 0.000495 µM
  Kinase Activity (%): 106% and 101% and 126% and 100% and 96% and 89% and 105% and 98%
PI3Kγ; 1.52 nM, 0.00152 µM
  Kinase Activity (%): 108% and 97% and 115% and 123% and 99% (2×) and 105% and 90% and 88% and 93%
PI3Kγ; 4.57 nM, 0.00457 µM
  Kinase Activity (%): 89% and 94% (2×) and 106% and 98% and 93% and 87% and 82% and 77% and 92%
PI3Kγ; 41.2 nM, 0.0412 µM
  Kinase Activity (%): 50% (2×) and 48% and 43% and 55% and 47% and 37% and 30% and 31% and 32%
PI3Kγ; 123 nM
  activity at 0.123 µM: 20%
PI3Kγ; 123 nM, 0.123 µM
  Kinase Activity (%): 21% (3×) and 25% and 22% and 19% and 16% (2×) and 13%
PI3Kγ; 370 nM
  activity at […]: 6%
PI3Kγ; 1110 nM, 1.11 µM
  Kinase Activity (%): 1% (4×) and 4% and 0% and 2% (2×) and 3% (2×)
PI3Kγ; 3330 nM, 3.33 µM
  Kinase Activity (%): 0% (9×) and 1%
PI3Kγ; 10000 nM, 10 µM
  Kinase Activity (%): 4% and 0% (8×) and 2%
mTOR; 0.495 nM
  activity at 0.000495 µM: 95%
mTOR; 0.495 nM, 0.000495 µM
  Kinase Activity (%): 99% and 98% and 101% and 94% and 96%
mTOR; 1.52 nM
  activity at 0.00152 µM: 97%
mTOR; 1.52 nM, 0.00152 µM
  Kinase Activity (%): 99% and 100% and 94% (2×)
mTOR; 4.57 nM
  activity at 0.00457 µM: 91%
mTOR; 4.57 nM, 0.00457 µM
  Kinase Activity (%): 92% and 94% and 87% and 88%
mTOR; 41.2 nM
  activity at 0.0412 µM: 52%
mTOR; 41.2 nM, 0.0412 µM
  Kinase Activity (%): 63% and 57% (2×) and 47% (2×)
mTOR; 123 nM
  activity at 0.123 µM: 29%
mTOR; 123 nM, 0.123 µM
  Kinase Activity (%): 30% (2×) and 32% and 31%
mTOR; 370 nM
  activity at […]: 13%
mTOR; 1110 nM, 1.11 µM
  Kinase Activity (%): 4% and 3% (2×) and 5% and 1% and 2%
mTOR; 3330 nM, 3.33 µM
  Kinase Activity (%): 0% (4×) and -1% and -2%
mTOR; 10000 nM, 10 µM
  Kinase Activity (%): 2% and -1% (4×) and 1%

Source: paper PMC9386018, “A lymphatic-absorbed multi-targeted kinase inhibitor for myelofibrosis therapy” (Nature Communications, 2022)
